One assay deals with HOS. Description: In vitro cytotoxic activity, Calcein AM assay, HOS. In kind it is cell-based. The settings on record: 72 hours.
The subject of assay [1] is human erythroleukaemia K562. Description: In vitro cytotoxic activity, Calcein AM assay, K-562. In kind it is cell-based. The settings on record: 72 hours, read-out: IC 50 K-562. The source says:
(§1) One of the parameters used, as the basis for cytotoxicity assays, is the metabolic activity of viable cells. For example, a microtiter assay, which uses the Calcein AM, is now widely used to quantitate cell proliferation and cytotoxicity. For instance, this assay is used in drug screening programs and in chemosensitivity testing. Because only metabolically active cells cleave Calcein AM, these assays detect viable cells exclusively. The quantity of reduced Calcein AM corresponds to the number of vital cells in the culture.
(§2) Human T-lymphoblastic leukemia cell line CEM; promyelocytic HL-60 and monocytic U937 leukemias; breast carcinoma cell lines MCF-7; cervical carcinoma cells HELA; mouse fibroblasts NIH3T3; human erythroleukaemia K562 and human malignant melanoma cells G361 were used for routine screening of compounds. The cells were maintained in Nunc/Corning 80 cm^2 plastic tissue culture flasks and cultured in cell culture medium (DMEM with 5 g/l glucose, 2 mM glutamine, 100 U/ml penicillin, 100 μg/ml streptomycin, 10% fetal calf serum and sodium bicarbonate).
(§3) The cell suspensions that were prepared and diluted according to the particular cell type and the expected target cell density (10^4 cells per well based on cell growth characteristics) were added by pipette (80 μl) into 96/well microtiter plates. Inoculates were allowed a pre-incubation period of 24 hours at 37° C. and 5% CO2 for stabilisation. Four-fold dilutions of the intended test concentration were added at time zero in 20 μl aliquots to the microtiter plate wells. Usually, test compound was evaluated at six 4-fold dilutions. In routine testing, the highest well concentration was 166.7 μM, but it can be the matter of change dependent on the agent. All drug concentrations were examined in duplicates. Incubations of cells with the test compounds lasted for 72 hours at 37° C., in 5% CO2 atmosphere and 100% humidity. At the end of incubation period, the cells were assayed by using the Calcein AM. Ten microliters of the stock solution were pipetted into each well and incubated further for 1 hours. Fluorescence (FD) was measured with the Labsystem FIA Reader Fluoroscan Ascent (UK). The tumour cell survival (GI50) was calculated using the following equitation: GI50=(FDdrug exposed well/mean FDcontrol wells)×100%. The GI50 value, the drug concentration lethal to 50% of the tumour cells, was calculated from the obtained dose response curves (FIG. 3).

The subject of assay [2] is breast carcinoma cell lines MCF-7. The assay can be described thus: In vitro cytotoxic activity, Calcein AM assay, MCF7. In kind it is cell-based, human. The note with it: 72 hours, read-out: IC 50 MCF7.
Excerpt: as §1, §2, §3

Another assay deals with mouse fibroblasts NIH3T3. The assay can be described thus: In vitro cytotoxic activity, Calcein AM assay, NIH-3T3. The note with it: 72 hours, read-out: IC 50 NIH-3T3. In kind it is cell-based.
Excerpt: as §1, §2, §3

In assay [3] the test system is Human T-lymphoblastic leukemia cell line CEM. The assay can be described thus: In vitro cytotoxic activity, Calcein AM assay, CEM. In kind it is cell-based. The note with it: 72 hours.
Excerpt: as §1, §2, §3

Another assay relates to promyelocytic HL-60. The assay can be described thus: In vitro cytotoxic activity, Calcein AM assay, HL60. In kind it is cell-based, human. The note with it: 72 hours, read-out: IC 50 HL60.
Excerpt: as §1, §2, §3

The subject of assay [4] is Triticum aestivum cv. Hereward. The assay can be described thus: Senescence inhibition on winter wheat leaf segments (chlorophyll retention). In kind it is in vivo. The note with it: for Concentration with highest activity: chlorophyll retention in excised wheat leaf tips, 96 h dark; for Activity (%) [10^−4 mol · l^−1 BAP = 100%]: chlorophyll retention, at concentration with highest activity. On the procedure: Seeds of winter wheat, Triticum aestivum cv. Hereward, were washed under running water for 24 hours and then sown on vermiculite soaked with Knop's solution. They were placed in the grown chamber at 15° C. with a 16/8 h light period at 50 μmol·m^−2·s^−1. After 7 days, the first leaf was fully developed and the second leaf had started to grow. A tip section of the first leaf, approximately 35 mm long, was removed from 5 seedlings and trimmed slightly to a combined weight of 100 mg. The basal ends of the five leaf tips were placed in the wells of a microtiter polystyrene plate containing 150 μl of a cytokinin solution each. The entire plate was inserted into a plastic box lined with paper tissues soaked in distilled water to prevent leaf sections from drying out. After a 96 h incubation in the dark at 25° C., the leaves were removed and chlorophyll extracted by heating at 80° C. for 10 min in 5 ml of 80% ethanol (v/v). The sample volume was then restored to 5 ml by the addition of 80% ethanol (v/v). The absorbency of the extract was recorded at 665 nm. In addition, chlorophyll extracts from fresh leaves and leaf tips incubated in deionised water were measured. From the obtained data, the concentration with highest activity was selected for each compound tested. Relative activity of the compound at this concentration was calculated (Tab. 10). The activity obtained for 10^−4 M 6-benzylaminopurine (BAP) was postulated as 100%. The values shown are means of five replicates and the whole experiment was repeated twice. The cytokinins to be tested were dissolved in dimethylsulfoxide (DMSO) and the solution brought up to 10^−3M with distilled water. This stock was further diluted in distilled water to concentrations ranging from 10^−8M to 10^−4M.

The test system of assay [5] is Amaranthus caudatus cotyledon/hypocotyl explants. The assay can be described thus: Amaranthus bioassay (betacyanin content). The assay is classed as in vivo. The note with it: for Concentration with highest activity: 48 h dark; for Activity (%) [10^−5 mol · l^−1 BAP = 100%]: at concentration with highest activity. On the procedure:
Standard Amaranthus bioassay was performed with several modifications. The seeds of Amaranthus caudatus var. atropurpurea were surface-sterilised in 10% N-chlorobenzenesulfonamide (w/v) for 10 min and washed 5 times in deionized water. They were placed in 15 cm Petri dishes containing paper tissues saturated with deionized water. After 72 h of cultivation at 25° C. in darkness, the roots of the seedlings were cut off. The explants, consisting of two cotyledons and hypocotyls, were placed in 5 cm Petri dishes on two layers of filter paper soaked in 1 ml of incubation medium containing 10 μmol NA2HPO4-KH2PO4, pH 6.8, 5 μmol tyrosine and the cytokinin to be tested. There were 20 explants per dish. The procedure was carried out under a green safe light in a darkroom. After a 48 h of incubation at 25° C. in darkness, betacyanin was extracted by freezing the explants in 4 ml […] acetic acid. The concentration of betacyanin was determined by comparing the absorbance at 537 nm and 620 nm as follows: ΔA=[…]-[…]. From the obtained data, the concentration with highest activity was selected for each compound tested. Relative activity of the compound at this concentration was calculated (Tab. 12). […] The values shown in table 8 are means of five replicates and the entire test was repeated twice. The cytokinins to be tested were dissolved in dimethylsulfoxide (DMSO) and the solution brought up to 10^-3M with distilled water. This stock was further diluted in the respective media used for the biotest to concentrations ranging from 10^-8M to 10^-4M. […] From the data obtained (FIG. 14) the maximum effective concentration of the tested compound was calculated as well as its relative effectiveness at this concentration (Table 12). […]

`COc1ccc(CNc2ncnc3c2ncn3[C@@H]2O[C@H](CO)[C@@H](O)[C@H]2O)cc1O` [3-hydroxy-4-methoxybenzylamino, 6-(3-hydroxy-4-methoxybenzylamino)purine riboside]: the IC50 (in the assay on HOS; in assay [1]; in assay [2]; in the assay on mouse fibroblasts NIH3T3; in assay [3]; in the assay on promyelocytic HL-60) was above 167 µM in each case. For the same molecule, the “Concentration with highest activity” value in assay [4] and in assay [5] was 10^−4 mol · l^−1 in each case. In assay [4], the “Activity (%) [10^−4 mol · l^−1 BAP = 100%]” value is 22 ± 5%. Moreover, the “Activity (%) [10^−5 mol · l^−1 BAP = 100%]” value in assay [5] is on record as 0%.
As to `OC[C@H]1O[C@@H](n2cnc3c(NCc4ccc(F)c(F)c4F)ncnc32)[C@H](O)[C@@H]1O` [2,3,4-trifluorobenzylamino, 6-(2,3,4-trifluorobenzylamino)purine riboside], the IC50 in the assay with HOS was above 167 µM; in assay [1], above 167 µM; in assay [2] it was above 167 µM; in the assay with mouse fibroblasts NIH3T3, above 167 µM; in assay [3], 58.2 µM; in the assay with promyelocytic HL-60, 13 µM. Besides, in assay [4], the “Concentration with highest activity” value is recorded as 10^−4 mol · l^−1. Further, the “Activity (%) [10^−4 mol · l^−1 BAP = 100%]” value in assay [4] is recorded as 144 ± 12%.
On to `COc1ccc(CNc2ncnc3c2ncn3[C@@H]2O[C@H](CO)[C@@H](O)[C@H]2O)c(OC)c1` [2,4-dimethoxybenzylamino, 6-(2,4-dimethoxybenzylamino)purine riboside], for which the IC50 in the assay with HOS is above 167 µM; in assay [1], above 167 µM; in assay [2], above 167 µM; in the assay on mouse fibroblasts NIH3T3, above 167 µM; in assay [3] it was above 167 µM; in the assay on promyelocytic HL-60, 39 µM. The “Concentration with highest activity” value in assay [5] is listed as 10^−5 mol · l^−1. Further, the “Activity (%) [10^−5 mol · l^−1 BAP = 100%]” value in assay [5] amounted to 3 ± 3%.
As for `CSc1nc(NCc2ccccc2Cl)c2ncn([C@@H]3O[C@H](CO)[C@@H](O)[C@H]3O)c2n1` [R2 = SCH3,2-chlorobenzylamino], the IC50 is above 167 µM with HOS; 78 µM in assay [1]; above 167 µM in assay [2]; above 167 µM with mouse fibroblasts NIH3T3; 14.6 µM in assay [3]; 7.4 µM in the assay with promyelocytic HL-60.
As for `OC[C@H]1O[C@@H](n2cnc3c(NCc4ccc(Cl)cc4Cl)ncnc32)[C@H](O)[C@@H]1O` [2,4-dichlorobenzylamino, 6-(2,4-dichlorobenzylamino)purine riboside], the IC50 is above 167 µM in the assay on HOS; 85.7 µM in assay [1]; 127 µM in assay [2]; above 167 µM in the assay on mouse fibroblasts NIH3T3; 86.7 µM in assay [3]; 96.3 µM in the assay on promyelocytic HL-60. For the same molecule, the “Concentration with highest activity” value is reported as 10^−5 mol · l^−1 in assay [4] and 10^−4 mol · l^−1 in assay [5]. Also, in assay [4], the “Activity (%) [10^−4 mol · l^−1 BAP = 100%]” value is listed as 5 ± 1%. The “Activity (%) [10^−5 mol · l^−1 BAP = 100%]” value in assay [5] is recorded as 3 ± 2%.
On to `Nc1nc(NCc2cccc(Cl)c2)c2ncn([C@@H]3O[C@H](CO)[C@@H](O)[C@H]3O)c2n1` [R2 = NH2,3-chlorobenzylamino], for which the IC50 with HOS was above 167 µM; in assay [1] it was 43 µM; in assay [2], above 167 µM; in the assay with mouse fibroblasts NIH3T3, above 167 µM; in assay [3], 10.2 µM; with promyelocytic HL-60 it was 5.8 µM.
With `OC[C@H]1O[C@@H](n2cnc3c(NCc4ccc(F)cc4)nc(Cl)nc32)[C@H](O)[C@@H]1O` [R2 = Cl, 4-fluorobenzylamino], the IC50 in the assay with HOS was 19 µM; in assay [1] it was 5.8 µM; in assay [2], 12 µM; in the assay with mouse fibroblasts NIH3T3, above 167 µM; in assay [3] it was 1.5 µM; in the assay on promyelocytic HL-60, 0.7 µM.
For the molecule `OC[C@H]1O[C@@H](n2cnc3c(NCc4ccc(F)cc4F)ncnc32)[C@H](O)[C@@H]1O` [2,4-difluorobenzylamino, 6-(2,4-difluorobenzylamino)purine riboside], the IC50 was above 167 µM in the assay with HOS; 7.4 µM in assay [1]; above 167 µM in assay [2]; above 167 µM in the assay with mouse fibroblasts NIH3T3; 7.1 µM in assay [3]; 3.4 µM in the assay on promyelocytic HL-60. Moreover, the “Concentration with highest activity” value in assay [4] and in assay [5] was 10^−4 mol · l^−1 each time. Besides, in assay [4], the “Activity (%) [10^−4 mol · l^−1 BAP = 100%]” value is 171 ± 8%. In assay [5], the “Activity (%) [10^−5 mol · l^−1 BAP = 100%]” value is given as 88 ± 7%.
Consider `OCC1OC(n2cnc3c(NCc4ccc(Cl)cc4)nc(Cl)nc32)C(O)C1O` (centres unmarked) [R2 = Cl, 4-chlorobenzylamino], for which the IC50 in the assay with HOS was above 167 µM; in assay [1] it was 15 µM; in assay [2], above 167 µM; in the assay with mouse fibroblasts NIH3T3, above 167 µM; in assay [3], 5.8 µM; in the assay with promyelocytic HL-60 it was 5 µM.
For `COc1ccc(CNc2ncnc3c2ncn3[C@@H]2O[C@H](CO)[C@@H](O)[C@H]2O)cc1OC` [3,4-dimethoxybenzylamino, 6-(3,4-dimethoxybenzylamino)purine riboside], in assay [4], the “Concentration with highest activity” value was 10^−4 mol · l^−1 and the “Activity (%) [10^−4 mol · l^−1 BAP = 100%]” value came out at 47 ± 6%. Moreover, in assay [5], the “Concentration with highest activity” value is given as 10^−4 mol · l^−1 and the “Activity (%) [10^−5 mol · l^−1 BAP = 100%]” value was 2 ± 1%.
